{
  "source": "paper PMC4615156",
  "about": "(Nucleus, 2014)",
  "target": "PCNA (Homo sapiens, UniProt P12004)",
  "sequence (P12004 whole entry)": "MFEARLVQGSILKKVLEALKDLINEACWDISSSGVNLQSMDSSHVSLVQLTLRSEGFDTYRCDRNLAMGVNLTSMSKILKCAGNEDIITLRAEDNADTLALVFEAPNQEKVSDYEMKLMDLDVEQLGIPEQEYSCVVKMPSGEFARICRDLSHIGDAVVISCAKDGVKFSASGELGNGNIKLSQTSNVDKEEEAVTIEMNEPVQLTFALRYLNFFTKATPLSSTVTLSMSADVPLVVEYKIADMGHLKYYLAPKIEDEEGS",
  "assay": "Fixation of live cells labeled with the cell-permeable PIP",
  "format": "cell-based",
  "details": "PCNA expressing cells labeled live, then 3.7% formaldehyde",
  "data": [
    {"substance": "RRRQRRKKRG-C C-SAVLQKKITDYFHPKKG-EDA-TAMRA (disulfide) [TAT(-SS-)PL-R]", "values": [
      {"measurement": "Labeling of repair sites after fixation of live labeled cells", "result": "still marks repair sites"}
    ]}
  ]
}
